Source: patent US20250100995A1, “CEREBLON BINDING COMPOUNDS, COMPOSITIONS THEREOF, AND METHODS OF TREATMENT THEREWITH” (CELGENE CORPORATION, priority 2021, published 2025)
Where a name gives a salt, the structure may show the parent alone.

Target: T1, AR (Homo sapiens, UniProt P10275)
T1 construct: endogenous in cells; host or cells: VCaP cells
T1 sequence (P10275 1-920): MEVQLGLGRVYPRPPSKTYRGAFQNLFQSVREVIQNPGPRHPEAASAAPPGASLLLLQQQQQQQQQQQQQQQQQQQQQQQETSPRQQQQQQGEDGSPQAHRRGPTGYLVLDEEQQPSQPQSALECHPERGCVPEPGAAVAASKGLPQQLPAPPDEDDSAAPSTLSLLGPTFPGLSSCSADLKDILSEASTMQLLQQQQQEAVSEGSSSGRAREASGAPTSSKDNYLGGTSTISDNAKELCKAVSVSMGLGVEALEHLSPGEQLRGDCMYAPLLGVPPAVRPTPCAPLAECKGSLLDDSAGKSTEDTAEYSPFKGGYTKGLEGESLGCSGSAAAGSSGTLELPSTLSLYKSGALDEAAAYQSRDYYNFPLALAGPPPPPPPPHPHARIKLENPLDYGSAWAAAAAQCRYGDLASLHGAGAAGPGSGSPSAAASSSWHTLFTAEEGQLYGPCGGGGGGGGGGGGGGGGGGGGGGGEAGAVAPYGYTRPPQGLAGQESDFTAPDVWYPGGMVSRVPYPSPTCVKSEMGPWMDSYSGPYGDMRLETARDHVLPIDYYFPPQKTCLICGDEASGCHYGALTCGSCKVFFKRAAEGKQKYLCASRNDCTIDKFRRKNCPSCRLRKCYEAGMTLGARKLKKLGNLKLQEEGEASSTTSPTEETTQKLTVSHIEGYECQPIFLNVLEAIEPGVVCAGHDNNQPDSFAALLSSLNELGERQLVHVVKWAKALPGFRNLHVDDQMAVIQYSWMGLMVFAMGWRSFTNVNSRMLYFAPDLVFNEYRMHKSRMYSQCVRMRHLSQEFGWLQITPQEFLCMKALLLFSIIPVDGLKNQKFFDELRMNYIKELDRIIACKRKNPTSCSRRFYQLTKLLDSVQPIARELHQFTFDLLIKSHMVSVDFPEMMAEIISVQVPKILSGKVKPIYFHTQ
Assay: VCAP AR Degradation Assay
Format: cell-based
Settings: VCaP cells, 24 h, AR ELISA; for DC50: concentration of compound when AR level = 50% of DMSO control; for Y: lowest measured AR level normalized to DMSO control (AR degradation efficiency)
Protocol: VCAP AR Degradation Assay. Test compounds were pre-dispensed into a Corning CellBind 96-well clear bottom plate (Cat #3300) using an acoustic dispenser to make a 10-point concentration series at 1:3 dilution for each compound. The final top concentration of each compound was 5 μM. DMSO at a final concentration of 0.1% was used as a control. VCaP cells cultured in DMEM with 8% fetal bovine serum (FBS) were seeded at 50K cells per well in a 200 μL volume into the compound plate and incubated at 37° C. in a CO2 incubator for 24 h. The medium was carefully removed from the cells and the plate was placed on ice. One hundred μL of ice-cold 1× cell lysis buffer from Cell Signaling Technologies (Cat #9803) was added to each well of the cells and the plate was incubated at 4° C. on a shaker for 1 h. Fifteen μL of cell lysate was used for AR ELISA detection using a PathScan Total Sandwich AR ELISA kit (Cell Signaling Technology, Cat #12580). AR levels in compound-treated wells were normalized to that of DMSO control and expressed as percent of control (PoC) (y). A Four Parameter Logistic Model (Sigmoidal Dose-Response Model) was used to determine the compound's DC50, and EC50, using the following equation: […]
The lowest measured AR level normalized to DMSO control in response to compound treatment, termed Y value, was used to characterize the compound-mediated AR degradation efficiency.

| Compound | DC50 [nM] | Y |
| --- | --- | --- |
| C[C@@H]1CN(CCO[C@H]2CC[C@H](N3C(=S)N(c4ccc(C#N)c(C(F)(F)F)c4)C(=O)C3(C)C)CC2)C[C@H](C)N1CCCOc1cc(C2CCC(=O)NC2=O)ccn1 (stereo partly drawn) [Cmpd 16, 4-(3-(trans-4-(2-((3R,5S)-4-(3-((4-(2,6-Dioxopiperidin-3-yl)pyridin-2-yl)oxy)propyl)-3,5-dimethylpiperazin-1-yl)ethoxy)cyclohexyl)-4,4-dimethyl-5-oxo-2-thioxoimidazolidin-1-yl)-2-(trifluoromethyl)benzonitrile hydrochloride] | 50 to 200 | *** (40%<Y<80%) |
| C[C@@H]1CN(CCCC[C@H]2CC[C@H](N3C(=S)N(c4ccc(C#N)c(C(F)(F)F)c4)C(=O)C3(C)C)CC2)C[C@H](C)N1CC(=O)Nc1cc(N2CCC(=O)NC2=O)ccn1 [Cmpd 17, 2-((2R,6S)-4-(4-((trans)-4-(3-(4-Cyano-3-(trifluoromethyl)phenyl)-5,5-dimethyl-4-oxo-2-thioxoimidazolidin-1-yl)cyclohexyl)butyl)-2,6-dimethylpiperazin-1-yl)-N-(4-(2,4-dioxotetrahydropyrimidin-1(2H)-yl)pyridin-2-yl)acetamide] | 5 to 50 | ** (20%<Y≤40%) |
| C[C@@H]1CN(CCCC[C@H]2CC[C@H](N3C(=S)N(c4ccc(C#N)c(C(F)(F)F)c4)C(=O)C3(C)C)CC2)C[C@H](C)N1CC(=O)Nc1ccc(N2CCC(=O)NC2=O)cn1 [Cmpd 18, 2-((2R,6S)-4-(4-((trans)-4-(3-(4-Cyano-3-(trifluoromethyl)phenyl)-5,5-dimethyl-4-oxo-2-thioxoimidazolidin-1-yl)cyclohexyl)butyl)-2,6-dimethylpiperazin-1-yl)-N-(5-(2,4-dioxotetrahydropyrimidin-1(2H)-yl)pyridin-2-yl)acetamide] | 5 to 50 | ** (20%<Y≤40%) |
| C[C@@H]1CN(CCCC[C@H]2CC[C@H](N3C(=S)N(c4ccc(C#N)c(C(F)(F)F)c4)C(=O)C3(C)C)CC2)C[C@H](C)N1CC(=O)Nc1ccc(C2CCC(=O)NC2=O)cn1 (stereo partly drawn) [Cmpd 19, 2-((2R,6S)-4-(4-((trans)-4-(3-(4-Cyano-3-(trifluoromethyl)phenyl)-5,5-dimethyl-4-oxo-2-thioxoimidazolidin-1-yl)cyclohexyl)butyl)-2,6-dimethylpiperazin-1-yl)-N-(5-(2,6-dioxopiperidin-3-yl)pyridin-2-yl)acetamide] | ≤ 5 | * (0<Y≤20%) |
| CC1(C)C(=O)N(c2ccc(C#N)c(C(F)(F)F)c2)C(=S)N1[C@H]1CC[C@H](CCCN2CCN(CC(=O)Nc3cc(C4CCC(=O)NC4=O)ccn3)[C@@H](C(F)(F)F)C2)CC1 (stereo partly drawn) [Cmpd 20, 2-((R)-4-(3-((trans)-4-(3-(4-Cyano-3-(trifluoromethyl)phenyl)-5,5-dimethyl-4-oxo-2-thioxoimidazolidin-1-yl)cyclohexyl)propyl)-2-(trifluoromethyl)piperazin-1-yl)-N-(4-(2,6-dioxopiperidin-3-yl)pyridin-2-yl)acetamide] | 5 to 50 | ** (20%<Y≤40%) |
| CC1(C)C(=O)N(c2ccc(C#N)c(C(F)(F)F)c2)C(=S)N1[C@H]1CC[C@H](OCCN2CCN(CC(=O)Nc3cc(C4CCC(=O)NC4=O)ccn3)[C@@H](C(F)(F)F)C2)CC1 (stereo partly drawn) [Cmpd 21, 2-((R)-4-(2-(((trans)-4-(3-(4-Cyano-3-(trifluoromethyl)phenyl)-5,5-dimethyl-4-oxo-2-thioxoimidazolidin-1-yl)cyclohexyl)oxy)ethyl)-2-(trifluoromethyl)piperazin-1-yl)-N-(4-(2,6-dioxopiperidin-3-yl)pyridin-2-yl)acetamide] | 5 to 50 | * (0<Y≤20%) |
| CC1(C)C(=O)N(c2cnc(C#N)c(C(F)(F)F)c2)C(=S)N1[C@H]1CC[C@H](OCCN2CCN(CC(=O)Nc3cc(C4CCC(=O)NC4=O)ccn3)[C@@H](C(F)(F)F)C2)CC1 (stereo partly drawn) [Cmpd 22, 2-((R)-4-(2-(((trans)-4-(3-(6-Cyano-5-(trifluoromethyl)pyridin-3-yl)-5,5-dimethyl-4-oxo-2-thioxoimidazolidin-1-yl)cyclohexyl)oxy)ethyl)-2-(trifluoromethyl)piperazin-1-yl)-N-(4-(2,6-dioxopiperidin-3-yl)pyridin-2-yl)acetamide] | ≤ 5 | * (0<Y≤20%) |
| CC1(C)C(=O)N(c2cnc(C#N)c(C(F)(F)F)c2)C(=S)N1[C@H]1CC[C@H](CCCN2CCN(CC(=O)Nc3cc(C4CCC(=O)NC4=O)ccn3)[C@@H](C(F)(F)F)C2)CC1 (stereo partly drawn) [Cmpd 23, 2-((R)-4-(3-((trans)-4-(3-(6-Cyano-5-(trifluoromethyl)pyridin-3-yl)-5,5-dimethyl-4-oxo-2-thioxoimidazolidin-1-yl)cyclohexyl)propyl)-2-(trifluoromethyl)piperazin-1-yl)-N-(4-(2,6-dioxopiperidin-3-yl)pyridin-2-yl)acetamide] | 5 to 50 | * (0<Y≤20%) |
| CC1(C)C(=O)N(c2ccc(C#N)c(C(F)(F)F)c2)C(=S)N1[C@H]1CC[C@H](OCCCN2CCN(CC(=O)Nc3cc(C4CCC(=O)NC4=O)ccn3)[C@@H](C(F)(F)F)C2)CC1 (stereo partly drawn) [Cmpd 24, 2-((R)-4-(3-(((trans)-4-(3-(4-Cyano-3-(trifluoromethyl)phenyl)-5,5-dimethyl-4-oxo-2-thioxoimidazolidin-1-yl)cyclohexyl)oxy)propyl)-2-(trifluoromethyl)piperazin-1-yl)-N-(4-(2,6-dioxopiperidin-3-yl)pyridin-2-yl)acetamide] | ≤ 5 | * (0<Y≤20%) |
| CC1(C)C(=O)N(c2cnc(C#N)c(C(F)(F)F)c2)C(=S)N1[C@H]1CC[C@H](OCCCN2CCN(CC(=O)Nc3cc(C4CCC(=O)NC4=O)ccn3)[C@@H](C(F)(F)F)C2)CC1 (stereo partly drawn) [Cmpd 25, 2-((R)-4-(3-(((trans)-4-(3-(6-Cyano-5-(trifluoromethyl)pyridin-3-yl)-5,5-dimethyl-4-oxo-2-thioxoimidazolidin-1-yl)cyclohexyl)oxy)propyl)-2-(trifluoromethyl)piperazin-1-yl)-N-(4-(2,6-dioxopiperidin-3-yl)pyridin-2-yl)acetamide] | ≤ 5 | * (0<Y≤20%) |
| C[C@@H]1C[C@H](OCCO[C@H]2CC[C@H](N3C(=S)N(c4cnc(C#N)c(C(F)(F)F)c4)C(=O)C3(C)C)CC2)C[C@H](C)N1CC(=O)Nc1cc(C2CCC(=O)NC2=O)ccn1 (stereo partly drawn) [Cmpd 26, 2-((2R,4r,6S)-4-(2-(((trans)-4-(3-(6-Cyano-5-(trifluoromethyl)pyridin-3-yl)-5,5-dimethyl-4-oxo-2-thioxoimidazolidin-1-yl)cyclohexyl)oxy)ethoxy)-2,6-dimethylpiperidin-1-yl)-N-(4-(2,6-dioxopiperidin-3-yl)pyridin-2-yl)acetamide] | ≤ 5 | ** (20%<Y≤40%) |
| C[C@@H]1C[C@H](OCC[C@H]2CC[C@H](N3C(=S)N(c4ccc(C#N)c(C(F)(F)F)c4)C(=O)C3(C)C)CC2)C[C@H](C)N1CC(=O)Nc1cc(C2CCC(=O)NC2=O)ccn1 (stereo partly drawn) [Cmpd 27, 2-((2R,4r,6S)-4-(2-((trans)-4-(3-(4-Cyano-3-(trifluoromethyl)phenyl)-5,5-dimethyl-4-oxo-2-thioxoimidazolidin-1-yl)cyclohexyl)ethoxy)-2,6-dimethylpiperidin-1-yl)-N-(4-(2,6-dioxopiperidin-3-yl)pyridin-2-yl)acetamide] | 5 to 50 | ** (20%<Y≤40%) |
| C[C@@H]1C[C@H](OCCC[C@H]2CC[C@H](N3C(=S)N(c4ccc(C#N)c(C(F)(F)F)c4)C(=O)C3(C)C)CC2)C[C@H](C)N1CC(=O)Nc1cc(C2CCC(=O)NC2=O)ccn1 (stereo partly drawn) [Cmpd 28, 2-((2R,4r,6S)-4-(3-((trans)-4-(3-(4-Cyano-3-(trifluoromethyl)phenyl)-5,5-dimethyl-4-oxo-2-thioxoimidazolidin-1-yl)cyclohexyl)propoxy)-2,6-dimethylpiperidin-1-yl)-N-(4-(2,6-dioxopiperidin-3-yl)pyridin-2-yl)acetamide] | 5 to 50 | ** (20%<Y≤40%) |
